For assay [1], the target named is V-ATPase (vacuolar proton translocating ATPase) (Saccharomyces cerevisiae, UniProt P25515+P32563). In words: BCECF flow cytometry dose response in living yeast. In kind it is cell-based.
In assay [2] the target is V-ATPase (vacuolar proton translocating ATPase; catalytic subunit A) (Saccharomyces cerevisiae, UniProt P16140+P17255). In words: ATP hydrolysis. In kind it is biochemical.

In general, EC50 refers to the concentration that produces a half-maximal response. Lower therefore signals a more potent agent.

Sequence of V-ATPase (vacuolar proton translocating ATPase; catalytic subunit A) (P17255 2-283): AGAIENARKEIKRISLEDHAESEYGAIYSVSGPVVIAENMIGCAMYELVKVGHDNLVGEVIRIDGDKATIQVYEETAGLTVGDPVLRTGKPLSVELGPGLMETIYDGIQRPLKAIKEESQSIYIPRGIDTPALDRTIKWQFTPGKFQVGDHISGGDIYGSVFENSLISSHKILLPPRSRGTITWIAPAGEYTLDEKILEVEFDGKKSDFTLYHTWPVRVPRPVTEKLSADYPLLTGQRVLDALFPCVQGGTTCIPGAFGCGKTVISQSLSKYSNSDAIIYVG
Sequence of V-ATPase (vacuolar proton translocating ATPase; catalytic subunit A) (P17255 738-1071): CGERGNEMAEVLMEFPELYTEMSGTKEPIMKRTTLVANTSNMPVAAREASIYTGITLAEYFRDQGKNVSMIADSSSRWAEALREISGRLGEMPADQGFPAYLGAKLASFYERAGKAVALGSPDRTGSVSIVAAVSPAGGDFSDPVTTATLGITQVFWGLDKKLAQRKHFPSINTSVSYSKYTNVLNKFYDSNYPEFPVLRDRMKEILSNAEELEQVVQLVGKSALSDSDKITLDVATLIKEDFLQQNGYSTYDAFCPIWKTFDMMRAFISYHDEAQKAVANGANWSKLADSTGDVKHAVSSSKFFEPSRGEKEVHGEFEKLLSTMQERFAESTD
Sequence of V-ATPase (vacuolar proton translocating ATPase; catalytic subunit A) (P16140 2-517): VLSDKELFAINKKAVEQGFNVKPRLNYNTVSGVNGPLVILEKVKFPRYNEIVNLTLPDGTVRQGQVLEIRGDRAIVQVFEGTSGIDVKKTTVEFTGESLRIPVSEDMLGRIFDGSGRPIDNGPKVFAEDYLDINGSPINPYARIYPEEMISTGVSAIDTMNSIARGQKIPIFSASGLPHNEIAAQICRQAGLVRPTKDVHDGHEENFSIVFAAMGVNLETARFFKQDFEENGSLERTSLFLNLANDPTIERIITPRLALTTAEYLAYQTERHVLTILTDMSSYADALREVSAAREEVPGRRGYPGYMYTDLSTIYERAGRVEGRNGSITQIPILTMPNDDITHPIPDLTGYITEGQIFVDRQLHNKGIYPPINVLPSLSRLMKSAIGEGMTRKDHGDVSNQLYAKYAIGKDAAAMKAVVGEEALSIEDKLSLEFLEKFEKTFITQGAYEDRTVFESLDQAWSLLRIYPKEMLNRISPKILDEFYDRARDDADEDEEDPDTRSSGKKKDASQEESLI
Sequence of V-ATPase (vacuolar proton translocating ATPase; catalytic subunit A) (P25515 whole entry partner): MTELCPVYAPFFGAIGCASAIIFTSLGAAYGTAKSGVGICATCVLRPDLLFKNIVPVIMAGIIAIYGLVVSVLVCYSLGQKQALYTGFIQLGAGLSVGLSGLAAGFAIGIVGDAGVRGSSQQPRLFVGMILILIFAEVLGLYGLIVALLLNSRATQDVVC
Sequence of V-ATPase (vacuolar proton translocating ATPase; catalytic subunit A) (P32563 2-840 partner): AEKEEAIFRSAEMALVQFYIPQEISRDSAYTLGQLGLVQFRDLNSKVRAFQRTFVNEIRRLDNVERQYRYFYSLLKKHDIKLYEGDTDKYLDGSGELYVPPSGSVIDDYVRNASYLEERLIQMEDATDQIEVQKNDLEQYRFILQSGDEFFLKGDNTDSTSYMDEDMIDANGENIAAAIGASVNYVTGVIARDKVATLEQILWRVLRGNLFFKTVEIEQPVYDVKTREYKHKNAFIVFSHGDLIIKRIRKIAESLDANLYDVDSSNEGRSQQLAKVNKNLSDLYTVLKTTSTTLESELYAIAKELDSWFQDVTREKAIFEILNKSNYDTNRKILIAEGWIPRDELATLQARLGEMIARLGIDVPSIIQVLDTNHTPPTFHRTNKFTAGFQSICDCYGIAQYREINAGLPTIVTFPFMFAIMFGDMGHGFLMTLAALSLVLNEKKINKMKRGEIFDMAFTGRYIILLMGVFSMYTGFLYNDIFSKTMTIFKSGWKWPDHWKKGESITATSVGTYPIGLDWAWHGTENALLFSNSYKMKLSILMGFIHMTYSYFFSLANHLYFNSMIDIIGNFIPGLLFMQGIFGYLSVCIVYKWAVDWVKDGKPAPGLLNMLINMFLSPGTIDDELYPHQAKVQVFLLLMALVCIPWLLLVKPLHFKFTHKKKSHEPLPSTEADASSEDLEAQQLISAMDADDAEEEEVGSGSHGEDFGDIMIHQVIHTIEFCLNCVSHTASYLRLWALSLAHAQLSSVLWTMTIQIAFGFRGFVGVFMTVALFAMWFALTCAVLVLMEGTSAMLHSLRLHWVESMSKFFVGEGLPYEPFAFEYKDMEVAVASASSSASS

As for `C/C=C/[C@H]1O[C@@](O)([C@@H](C)[C@H](O)[C@H](C)[C@H]2OC(=O)/C(OC)=C/C(C)=C/[C@@H](C)[C@@H](O)[C@@H](CC)[C@@H](O)[C@H](C)C/C(C)=C/C=C/[C@@H]2OC)C[C@@H](O[C@H]2C[C@@H](O)[C@H](OC(N)=O)[C@@H](C)O2)[C@@H]1C` [concanamycin A], in assay [1], the EC50 was 2.1 to 2.27 µM. In the case of `CCN(CC)C(=S)SSC(=S)N(CC)CC` [disulfiram], in assay [2], the 50% effective concentration (EC50) amounted to 24.7 µM.
